Test results reported in PubChem BioAssay (NCI).
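Results reflect a 48-hour exposure of cells in 96-well plates to compound at five concentrations. GI50 = concentration required for 50% inhibition of growth. TGI marks complete inhibition of growth.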

Legend:
Assay in all cases: DTP human tumour cell line panel, 48 h
[1] = test system: A498 renal
[2] = test system: ACHN renal
[3] = test system: CCRF-CEM leukemia
[4] = test system: EKVX NSCLC
[5] = test system: HCT-116 colon
[6] = test system: NCI-H522 lung
[7] = test system: SR leukemia
[8] = test system: UACC-62 melanoma
[9] = test system: PC-3 prostate
[10] = test system: SK-MEL-28 melanoma

## COC(=O)C(C(=O)C(=O)Nc1ccc(C)cc1C)c1csc(-n2nc(-c3ccccc3)cc2-c2ccccc2)n1 (stereo not drawn)
[1]
  TGI: > 100 µM
[2]
  TGI: > 100 µM
[3]
  TGI: > 100 µM
[4]
  TGI: > 100 µM
[5]
  TGI: > 100 µM
[6]
  TGI: > 100 µM
[7]
  TGI: > 100 µM
[8]
  TGI: > 100 µM

## Cn1c(=O)n(C)c2cc(CNCCNc3ccnc4cc(Cl)ccc34)ccc21
[1]
  GI50: 1.57 µM
  TGI: 27 µM
[2]
  GI50: 25.4 µM
  TGI: 93.4 µM
[3]
  GI50: 30.7 µM
  TGI: > 100 µM
[5]
  GI50: 17.9 µM
  TGI: 54.5 µM
[6]
  GI50: 30.2 µM
  TGI: 93.3 µM
[9]
  GI50: 34.6 µM
  TGI: > 100 µM
[10]
  GI50: 16 µM
  TGI: 30.2 µM
[7]
  GI50: 16.3 µM
  TGI: 48.2 µM
[8]
  GI50: 17.7 µM
  TGI: 35.6 µM

## O=c1c2c(-c3ccccc3)c3ccccc3nc2cnn1-c1ccccc1
[1]
  TGI: > 100 µM
[2]
  TGI: > 100 µM
[3]
  TGI: > 100 µM
[4]
  TGI: > 100 µM
[5]
  TGI: > 100 µM
[6]
  TGI: > 100 µM
[10]
  TGI: > 100 µM
[7]
  TGI: > 100 µM
[8]
  TGI: > 100 µM

## COc1cccc(-c2cc(=O)c3cc4c(cc3[nH]2)OCO4)c1
[1]
  TGI: 1.45 µM
[2]
  TGI: > 48.2 µM
[3]
  TGI: > 100 µM
[4]
  TGI: > 100 µM
[5]
  TGI: > 100 µM
[10]
  TGI: > 100 µM
[7]
  TGI: > 100 µM
[8]
  TGI: > 100 µM

## N=c1c2ccccc2sc2nc3ccccc3n12
[1]
  TGI: > 100 µM
[2]
  TGI: > 100 µM
[3]
  TGI: > 100 µM
[4]
  TGI: > 100 µM
[6]
  TGI: > 100 µM
[10]
  TGI: > 100 µM
[7]
  TGI: > 100 µM
[8]
  TGI: > 100 µM

## COc1ccc(-c2cnnn2-c2nonc2-n2cccc2)cc1OC
[1]
  GI50: 2.95 µM
  TGI: 23 µM
[2]
  GI50: 7.8 µM
  TGI: > 100 µM
[3]
  GI50: 3.3 µM
  TGI: > 100 µM
[5]
  GI50: 4.19 µM
  TGI: > 100 µM
[6]
  GI50: 2.32 µM
  TGI: 11.3 µM
[9]
  GI50: 14.1 µM
  TGI: > 100 µM
[10]
  GI50: 7.74 µM
  TGI: > 100 µM
[7]
  GI50: 1.9 µM
  TGI: > 100 µM
[8]
  GI50: 5.42 µM
  TGI: > 100 µM

## OC1=CN=COc2ccccc21
[1]
  TGI: > 100 µM
[2]
  TGI: > 100 µM
[3]
  TGI: > 100 µM
[4]
  TGI: > 100 µM
[5]
  TGI: > 100 µM
[10]
  TGI: > 100 µM
[8]
  TGI: > 100 µM

## C=C1C(=O)C23[C@H](O)C1CC[C@H]2[C@]12COC3(O)[C@@H](O)[C@@H]1C(C)(C)CC[C@@H]2O
[1]
  TGI: 22.7 µM
[2]
  TGI: 30.2 µM
[3]
  TGI: 95 µM
[4]
  TGI: 34.6 µM
[5]
  TGI: 19.3 µM
[6]
  TGI: 1.9 µM
[10]
  TGI: 12.9 µM
[7]
  TGI: 34.9 µM
[8]
  TGI: 23.6 µM

## O=C(c1ccc2ccccc2c1)c1nc2cc(F)ccc2[n+]([O-])c1C(F)(F)F
[1]
  GI50: 43.7 µM
  TGI: > 100 µM
[2]
  GI50: 22.5 µM
  TGI: 60 µM
[3]
  GI50: 22.5 µM
  TGI: 66.3 µM
[4]
  GI50: 18.2 µM
  TGI: 38 µM
[5]
  GI50: 18.4 µM
  TGI: 33.1 µM
[6]
  GI50: 13.6 µM
  TGI: 29.8 µM
[9]
  GI50: 20.1 µM
  TGI: 53.4 µM
[10]
  GI50: 15.9 µM
  TGI: 30.3 µM
[8]
  GI50: 17 µM
  TGI: 32.6 µM

## CC(=O)c1ccc(NC(=O)C(=O)C(C(=O)/C=C/c2ccccc2)C2OC(=O)c3ccccc32)cc1 (stereo not drawn)
[1]
  TGI: > 100 µM
[2]
  TGI: > 100 µM
[3]
  TGI: > 100 µM
[4]
  TGI: > 100 µM
[5]
  TGI: > 100 µM
[6]
  TGI: > 100 µM
[10]
  TGI: > 100 µM
[7]
  TGI: > 100 µM
[8]
  TGI: > 100 µM

## CC(=O)OC(C(=O)[O][Sn]([CH3])([CH3])[CH3])c1ccccc1 (stereo not drawn)
[1]
  GI50: > 100 µM
  TGI: > 100 µM
[2]
  GI50: > 100 µM
  TGI: > 100 µM
[3]
  GI50: 63.4 µM
  TGI: > 100 µM
[4]
  GI50: > 100 µM
  TGI: > 100 µM
[5]
  GI50: > 100 µM
  TGI: > 100 µM
[6]
  GI50: 19.9 µM
  TGI: 62.6 µM
[10]
  GI50: > 100 µM
  TGI: > 100 µM
[7]
  GI50: > 100 µM
  TGI: > 100 µM
[8]
  GI50: > 100 µM
  TGI: > 100 µM

## CCOc1ccc(N=C(NC(=O)c2ccccc2)SC)cc1
[1]
  TGI: > 100 µM
[2]
  TGI: > 100 µM
[3]
  TGI: > 100 µM
[4]
  TGI: > 100 µM
[5]
  TGI: > 100 µM
[10]
  TGI: > 100 µM
[7]
  TGI: > 100 µM
[8]
  TGI: > 100 µM

## COC/N=C(\NC#N)NCOC
[1]
  TGI: > 100 µM
[2]
  TGI: > 100 µM
[3]
  TGI: > 100 µM
[4]
  TGI: > 100 µM
[5]
  TGI: > 100 µM
[6]
  TGI: > 100 µM
[10]
  TGI: > 100 µM
[7]
  TGI: 54.6 µM
[8]
  TGI: > 100 µM

## COc1ccccc1-c1cc(=O)c2cc(C)c(C)c(C(=O)O)c2o1
[1]
  TGI: > 100 µM
[2]
  TGI: > 100 µM
[3]
  TGI: > 100 µM
[4]
  TGI: > 100 µM
[5]
  TGI: > 100 µM
[6]
  TGI: > 100 µM
[10]
  TGI: > 100 µM
[8]
  TGI: > 100 µM

## COc1ccc(/C=C(\NC(=O)c2ccccc2)c2nc3ccccc3[nH]2)cc1OC
[1]
  TGI: > 100 µM
[2]
  TGI: > 100 µM
[3]
  TGI: > 100 µM
[4]
  TGI: > 100 µM
[5]
  TGI: > 100 µM
[6]
  TGI: > 100 µM
[10]
  TGI: > 100 µM
[7]
  TGI: > 100 µM
[8]
  TGI: > 100 µM

## CCOc1ccc(N=C2NC(=O)C(CC(=O)Nc3ccccc3[N+](=O)[O-])S2)cc1 (stereo not drawn)
[1]
  TGI: > 100 µM
[2]
  TGI: > 100 µM
[3]
  TGI: > 100 µM
[4]
  TGI: > 100 µM
[5]
  TGI: > 100 µM
[6]
  TGI: > 100 µM
[10]
  TGI: > 100 µM
[7]
  TGI: > 100 µM
[8]
  TGI: > 100 µM

## O=C1CCC2(c3ccccc3)Nc3ccccc3N12 (stereo not drawn)
[1]
  TGI: > 100 µM
[2]
  TGI: > 100 µM
[3]
  TGI: > 100 µM
[4]
  TGI: > 100 µM
[6]
  TGI: > 100 µM
[10]
  TGI: > 100 µM
[8]
  TGI: > 100 µM

## Cc1cc(NCc2cc(Nc3ccnc4cc(Cl)ccc34)ccc2F)nc(N2CCOCC2)n1
[1]
  GI50: 1.46 µM
  TGI: 6.89 µM
[3]
  GI50: 2.53 µM
  TGI: 34.6 µM
[4]
  GI50: 3.18 µM
  TGI: 23.9 µM
[6]
  GI50: 1.84 µM
  TGI: 4.39 µM
[9]
  GI50: 2.28 µM
  TGI: 7.65 µM

## CCOc1cccc2c1N[S@@](=O)S2
[2]
  TGI: > 100 µM
[3]
  TGI: > 100 µM
[4]
  TGI: > 100 µM
[5]
  TGI: > 100 µM
[6]
  TGI: > 100 µM
[10]
  TGI: > 100 µM
[7]
  TGI: > 100 µM
[8]
  TGI: > 100 µM

## CCC1=CCN(c2cc(C)ccn2)OC1c1ccccc1 (stereo not drawn)
[2]
  TGI: > 100 µM
[3]
  TGI: > 100 µM
[4]
  TGI: > 100 µM
[5]
  TGI: > 100 µM
[6]
  TGI: 62.1 µM
[10]
  TGI: 77.1 µM
[7]
  TGI: 55.7 µM
[8]
  TGI: > 100 µM

## COc1cc2c(c3c1c(=O)c1ccccc1n3C)C=CC(C)(C)O2
[2]
  TGI: > 100 µM
[3]
  TGI: > 100 µM
[5]
  TGI: > 100 µM
[6]
  TGI: 50.7 µM
[10]
  TGI: > 100 µM
[7]
  TGI: 39.5 µM
[8]
  TGI: > 100 µM
